From patent US20240376084A1, “INHIBITORS OF ALPHA-HEMOLYSIN OF STAPHYLOCOCCUS AUREUS” (Helmholtz-Zentrum Fur Infektionsforschung GmbH, priority 2021, published 2024)
pEC50, pIC50: −log10 of the molar value.

How the values were obtained:
[1] = biological target: S. aureus Alpha hemolysin (Staphylococcus aureus, UniProt P09616); assay: cell-based; details: A549-LDH Assay activity
[2] = biological target: hemolysin alpha from Staphylococcus aureus (Staphylococcus aureus, UniProt P09616); assay: cell-based
Chain of hemolysin alpha from Staphylococcus aureus (P09616 27-319 limits assumed): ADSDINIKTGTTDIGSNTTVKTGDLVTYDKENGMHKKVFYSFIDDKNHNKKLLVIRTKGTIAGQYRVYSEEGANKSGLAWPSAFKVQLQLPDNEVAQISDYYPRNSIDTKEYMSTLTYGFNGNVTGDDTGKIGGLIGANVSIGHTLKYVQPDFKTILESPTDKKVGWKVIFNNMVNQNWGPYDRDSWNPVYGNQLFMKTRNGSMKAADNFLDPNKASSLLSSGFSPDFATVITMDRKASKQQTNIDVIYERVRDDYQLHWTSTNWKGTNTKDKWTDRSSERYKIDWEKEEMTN

Chain of S. aureus Alpha hemolysin (P09616 27-319 limits assumed): as above

SMILES | pEC50 [1] | pIC50 [2] | pEC50 [2]
O=c1[nH]c2cc(F)c(S(=O)(=O)Nc3ccc(-c4cccnc4)c(Cl)c3)cc2[nH]c1=O [Compound 99, N-(3-chloro-4-(pyridin-3-yl)phenyl)-7-fluoro-2,3-dioxo-1,2,3,4-tetrahydroquinoxaline-6-sulfonamide] | 5.22 to 6.00 | 6.00 to 7.00 | –
Cc1cc(NS(=O)(=O)c2cc3[nH]c(=O)c(=O)[nH]c3cc2C)ccc1-c1ccccc1 [Compound 17, 7-methyl-N-(2-methyl-[1,1′-biphenyl]-4-yl)-2,3-dioxo-1,2,3,4-tetrahydroquinoxaline-6-sulfonamide] | > 7.52 | > 7.52 | –
C#Cc1ccc(-c2ccc(NS(=O)(=O)c3cc4[nH]c(=O)c(=O)[nH]c4cc3C)cc2C#C)cc1 [Compound 251, N-(2,4′-diethynyl-[1,1′-biphenyl]-4-yl)-7-methyl-2,3-dioxo-1,2,3,4-tetrahydroquinoxaline-6-sulfonamide] | > 7.52 | – | > 7.52
Cc1cc2[nH]c(=O)c(=O)[nH]c2cc1S(=O)(=O)Nc1ccc(-c2ccc(NC(=O)N(C)C)cc2)c(Cl)c1 [Compound 332, 3-[4-[2-chloro-4-[(7-methyl-2,3-dioxo-1,4-dihydroquinoxalin-6-yl)sulfonylamino]phenyl]phenyl]-1,1-dimethyl-urea] | 6.00 to 7.00 | – | 6.00 to 7.00
Cc1cc2[nH]c(=O)c(=O)[nH]c2cc1S(=O)(=O)Nc1ccc(-c2ccc3c(c2)CCNC3=O)c(Cl)c1 [Compound 334, N-[3-chloro-4-(1-oxo-3,4-dihydro-2H-isoquinolin-6-yl)phenyl]-7-methyl-2,3-dioxo-1,4-dihydroquinoxaline-6-sulfonamide] | 5.22 to 6.00 | – | 6.00 to 7.00
Cc1cc2[nH]c(=O)c(=O)[nH]c2cc1S(=O)(=O)Nc1ccc(-c2ccc(OC3CC3)cc2)c(Cl)c1 [Compound 268, N-[3-chloro-4-[4-(cyclopropoxy)phenyl]phenyl]-7-methyl-2,3-dioxo-1,4-dihydroquinoxaline-6-sulfonamide] | 6.00 to 7.00 | – | 7.00 to 7.52
Cc1cc2[nH]c(=O)c(=O)[nH]c2cc1S(=O)(=O)Nc1ccc(-c2cccc(CO)c2)c(Cl)c1 [Compound 333, N-[3-chloro-4-[3-(hydroxymethyl)phenyl]phenyl]-7-methyl-2,3-dioxo-1,4-dihydroquinoxaline-6-sulfonamide] | 6.00 to 7.00 | – | 7.00 to 7.52
O=c1[nH]c2cc(Cl)c(S(=O)(=O)Nc3ccc(-c4ccc(F)c(Cl)c4)c(Cl)c3)cc2[nH]c1=O [Compound 19, 7-chloro-N-(2,3′-dichloro-4′-fluoro-[1,1′-biphenyl]-4-yl)-2,3-dioxo-1,2,3,4-tetrahydroquinoxaline-6-sulfonamide] | 6.00 to 7.00 | > 7.52 | –
O=c1[nH]c2cc(Cl)c(S(=O)(=O)Nc3ccc(-c4cccc(N5CCCC5)c4)c(Cl)c3)cc2[nH]c1=O [Compound 21, 7-chloro-N-(2-chloro-3′-(pyrrolidin-1-yl)-[1,1′-biphenyl]-4-yl)-2,3-dioxo-1,2,3,4-tetrahydroquinoxaline-6-sulfonamide] | 6.00 to 7.00 | > 7.52 | –
Cc1cc2[nH]c(=O)c(=O)[nH]c2cc1S(=O)(=O)Nc1ccc(-c2ccccc2N(C)C)cc1 [Compound 119, N-(2′-(dimethylamino)-[1,1′-biphenyl]-4-yl)-7-methyl-2,3-dioxo-1,2,3,4-tetrahydroquinoxaline-6-sulfonamide] | 6.00 to 7.00 | 6.00 to 7.00 | –
Cc1cc2[nH]c(=O)c(=O)[nH]c2cc1S(=O)(=O)Nc1ccc(-c2ccccc2Cl)cc1 [Compound 108, N-(2′-chloro-[1,1′-biphenyl]-4-yl)-7-methyl-2,3-dioxo-1,2,3,4-tetrahydroquinoxaline-6-sulfonamide] | 6.00 to 7.00 | 6.00 to 7.00 | –
Cc1cc2[nH]c(=O)c(=O)[nH]c2cc1S(=O)(=O)Nc1ccc(-c2ccc(N(C)C)cc2)c(Cl)c1 [Compound 288, N-[3-chloro-4-[4-(dimethylamino)phenyl]phenyl]-7-methyl-2,3-dioxo-1,4-dihydroquinoxaline-6-sulfonamide] | 5.22 to 6.00 | – | 6.00 to 7.00
Cc1ccccc1-c1ccc(NS(=O)(=O)c2cc3[nH]c(=O)c(=O)[nH]c3cc2C)cc1Cl [Compound 90, N-(2-chloro-2′-methyl-[1,1′-biphenyl]-4-yl)-7-methyl-2,3-dioxo-1,2,3,4-tetrahydroquinoxaline-6-sulfonamide] | 6.00 to 7.00 | 6.00 to 7.00 | –
Cc1cc2[nH]c(=O)c(=O)[nH]c2cc1S(=O)(=O)Nc1ccc(-c2ccc(F)cc2)c(C#N)c1 [Compound 377, N-[3-cyano-4-(4-fluorophenyl)phenyl]-7-methyl-2,3-dioxo-1,4-dihydroquinoxaline-6-sulfonamide] | 6.00 to 7.00 | – | 6.00 to 7.00
COc1cc(NS(=O)(=O)c2cc3[nH]c(=O)c(=O)[nH]c3cc2C)ccc1-c1ccccc1C [Compound 124, N-(2-methoxy-2′-methyl-[1,1′-biphenyl]-4-yl)-7-methyl-2,3-dioxo-1,2,3,4-tetrahydroquinoxaline-6-sulfonamide] | 6.00 to 7.00 | 6.00 to 7.00 | –
COc1ccccc1-c1ccc(NS(=O)(=O)c2cc3[nH]c(=O)c(=O)[nH]c3cc2C)cc1Cl [Compound 72, N-(2-chloro-2′-methoxy-[1,1′-biphenyl]-4-yl)-7-methyl-2,3-dioxo-1,2,3,4-tetrahydroquinoxaline-6-sulfonamide] | 6.00 to 7.00 | 6.00 to 7.00 | –

SMILES | pEC50 [1] | pIC50 [2] | pEC50 [2]
Cc1cc2[nH]c(=O)c(=O)[nH]c2cc1S(=O)(=O)Nc1ccc(-c2ccc(F)c(C(N)=O)c2)c(Cl)c1 [Compound 389, 5-[2-chloro-4-[(7-methyl-2,3-dioxo-1,4-dihydroquinoxalin-6-yl)sulfonylamino]phenyl]-2-fluoro-benzamide] | 7.00 to 7.52 | – | > 7.52
O=c1[nH]c2cc(F)c(S(=O)(=O)Nc3ccc(-c4ccccc4)cc3)cc2[nH]c1=O [Compound 64, N-([1,1′-biphenyl]-4-yl)-7-fluoro-2,3-dioxo-1,2,3,4-tetrahydroquinoxaline-6-sulfonamide] | 6.00 to 7.00 | 7.00 to 7.52 | –
Cc1cc2[nH]c(=O)c(=O)[nH]c2cc1S(=O)(=O)Nc1ccc(-c2ccc3c(c2)NC(=O)C3)c(Cl)c1 [Compound 350, N-[3-chloro-4-(2-oxoindolin-6-yl)phenyl]-7-methyl-2,3-dioxo-1,4-dihydroquinoxaline-6-sulfonamide] | 7.00 to 7.52 | – | 7.00 to 7.52
Cc1cc2[nH]c(=O)c(=O)[nH]c2cc1S(=O)(=O)Nc1ccc(-c2ccc3c(c2)NCC3)c(Cl)c1 [Compound 13, N-(3-chloro-4-(indolin-6-yl)phenyl)-7-methyl-2,3-dioxo-1,2,3,4-tetrahydroquinoxaline-6-sulfonamide] | 6.00 to 7.00 | > 7.52 | –
Cc1cc2ccc(-c3ccc(NS(=O)(=O)c4cc5[nH]c(=O)c(=O)[nH]c5cc4C)cc3Cl)cc2[nH]1 [Compound 349, N-[3-chloro-4-(2-methyl-1H-indol-6-yl)phenyl]-7-methyl-2,3-dioxo-1,4-dihydroquinoxaline-6-sulfonamide] | > 7.52 | – | > 7.52
COc1ccc(-c2ccc(NS(=O)(=O)c3cc4[nH]c(=O)c(=O)[nH]c4cc3C)cc2Cl)cc1F [Compound 320, N-[3-chloro-4-(3-fluoro-4-methoxy-phenyl)phenyl]-7-methyl-2,3-dioxo-1,4-dihydroquinoxaline-6-sulfonamide] | > 7.52 | – | > 7.52
Cc1cc2[nH]c(=O)c(=O)[nH]c2cc1S(=O)(=O)Nc1ccc(-n2cncn2)cc1 [Compound 265, 7-methyl-2,3-dioxo-N-[4-(1,2,4-triazol-1-yl)phenyl]-1,4-dihydroquinoxaline-6-sulfonamide] | 5.22 to 6.00 | – | 5.46 to 6.00
Cc1cc2[nH]c(=O)c(=O)[nH]c2cc1S(=O)(=O)Nc1ccc(N2CCOCC2)c(Br)c1 [Compound 128, N-(3-bromo-4-morpholinophenyl)-7-methyl-2,3-dioxo-1,2,3,4-tetrahydroquinoxaline-6-sulfonamide] | 6.00 to 7.00 | 6.00 to 7.00 | –
Cc1cc(NS(=O)(=O)c2cc3[nH]c(=O)c(=O)[nH]c3cc2Cl)ccc1Br [Compound 141, N-(4-bromo-3-methylphenyl)-7-chloro-2,3-dioxo-1,2,3,4-tetrahydroquinoxaline-6-sulfonamide] | 6.00 to 7.00 | 6.00 to 7.00 | –
CCOC(=O)c1ccccc1-c1ccc(NS(=O)(=O)c2cc3[nH]c(=O)c(=O)[nH]c3cc2C)cc1 [Compound 120, ethyl 4′-((7-methyl-2,3-dioxo-1,2,3,4-tetrahydroquinoxaline)-6-sulfonamido)-[1,1′-biphenyl]-2-carboxylate] | 5.22 to 6.00 | 6.00 to 7.00 | –
Cc1cc2[nH]c(=O)c(=O)[nH]c2cc1S(=O)(=O)Nc1ccc(-c2cc(F)ccc2F)c(Cl)c1 [Compound 295, N-[3-chloro-4-(2,5-difluorophenyl)phenyl]-7-methyl-2,3-dioxo-1,4-dihydroquinoxaline-6-sulfonamide] | 6.00 to 7.00 | – | 7.00 to 7.52
C#Cc1cc(NS(=O)(=O)c2cc3[nH]c(=O)c(=O)[nH]c3cc2C)ccc1-c1ccc(OC)c(F)c1 [Compound 300, N-[3-ethynyl-4-(3-fluoro-4-methoxy-phenyl)phenyl]-7-methyl-2,3-dioxo-1,4-dihydroquinoxaline-6-sulfonamide] | > 7.52 | – | > 7.52
Cc1cc2[nH]c(=O)c(=O)[nH]c2cc1S(=O)(=O)Nc1ccc(Br)c(Cl)c1 [Compound 75, N-(4-bromo-3-chlorophenyl)-7-methyl-2,3-dioxo-1,2,3,4-tetrahydroquinoxaline-6-sulfonamide] | 6.00 to 7.00 | 6.00 to 7.00 | –
Cc1cc2[nH]c(=O)c(=O)[nH]c2cc1S(=O)(=O)Nc1ccc(-c2ccn3ncnc3c2)c(Cl)c1 [Compound 337, N-[3-chloro-4-([1,2,4]triazolo[1,5-a]pyridin-7-yl)phenyl]-7-methyl-2,3-dioxo-1,4-dihydroquinoxaline-6-sulfonamide] | 7.00 to 7.52 | – | 7.00 to 7.52
O=c1[nH]c2cc(F)c(S(=O)(=O)Nc3ccc(Br)c(Cl)c3)cc2[nH]c1=O [Compound 148, N-(4-bromo-3-chlorophenyl)-7-fluoro-2,3-dioxo-1,2,3,4-tetrahydroquinoxaline-6-sulfonamide] | – | 6.00 to 7.00 | –
